One test deals with T1, EGFR (Homo sapiens, UniProt P00533).
T1 construct: GST; made in house; host or cells: Sf9 insect cells (baculovirus)
Kind of test: Receptor tyrosine kinase inhibition, 33P-ATP FlashPlate assay (EGFR). It counts as biochemical. Conditions: recombinant GST fusion kinase, substrate Poly(Glu,Tyr)4:1, Ki from IC50, Km ATP 1.3 µM. How it is done: (§1) The protein kinases were expressed by means of the baculovirus expression system in Sf9 insect cells as human recombinant GST fusion proteins and purified by affinity chromatography using GSH-agarose. The kinase identity was confirmed by mass spectrometry using LC-ESI-MS/MS technique.
(§2) The measuring of protein kinase activity was performed in 96-well FlashPlates^TM from Perkin Elmer in a 50 µL reaction volume. The reaction mixture consisted of 20 µL of assay buffer solution, 5 µL of ATP solution in water, 5 µL of used test compound in a 10% DMSO solution and finally a premixture of each 10 µL of used substrate and enzyme solutions. The assay buffer solution contained 70 mM of HEPES-NAOH pH 7.5, each 3 mM of magnesium chloride and manganese(II) chloride, 3 µM of sodium orthovanadate, 1.2 mM of DTT, 50 µg/mL of PEG20000 and finally 15 µM of [γ-^33P]-ATP making approximately 7 × 10^5 cpm per well.
(§3) The final kinase concentration has been 10 ng/50 µL for EGFR and IGF-1R. The used substrate was Poly(Glu,Tyr)4:1 in a concentration of 125 ng/50 µL.
(§4) The reaction mixtures were incubated at 30 °C for 60 min. The reaction was stopped with 50 µL of a 2% (v/v) solution of phosphoric acid. Then, the plates were aspirated and washed twice with 200 µL of water or 0.9% solution of sodium chloride. The incorporation of ^33Pi was determined with a microplate scintillation counter. Ten different inhibitor concentrations were measured in a range of 3 nM to 100 µM. The residual activity (%) and the IC50 values were finally calculated. From the IC50 values, the affinity constants Ki were determined using the equation: IC50 = 1/2 [Etotal] + Ki× (1 + [S]/Km) following a competitive inhibitor binding mode[18]. The used Km values for ATP have been measured with 1.3 µM for EGFR and with 2.52 µM for IGF-1R (Table 1).

Test [1] deals with T2, IGF-1R (Homo sapiens, UniProt P08069).
T2 construct: GST; made in house; host or cells: Sf9 insect cells (baculovirus)
Briefly: Receptor tyrosine kinase inhibition, 33P-ATP FlashPlate assay (IGF-1R). In kind it is biochemical. Particulars: for Ki: recombinant GST fusion kinase, substrate Poly(Glu,Tyr)4:1, Ki from IC50, Km ATP 2.52 µM. The procedure:
as §1, §2, §3, §4

Test [2] concerns IGF-1R. Details: method as in PMID 23639757. Conditions: cited from earlier work.

T1 sequence (P00533 25-1210): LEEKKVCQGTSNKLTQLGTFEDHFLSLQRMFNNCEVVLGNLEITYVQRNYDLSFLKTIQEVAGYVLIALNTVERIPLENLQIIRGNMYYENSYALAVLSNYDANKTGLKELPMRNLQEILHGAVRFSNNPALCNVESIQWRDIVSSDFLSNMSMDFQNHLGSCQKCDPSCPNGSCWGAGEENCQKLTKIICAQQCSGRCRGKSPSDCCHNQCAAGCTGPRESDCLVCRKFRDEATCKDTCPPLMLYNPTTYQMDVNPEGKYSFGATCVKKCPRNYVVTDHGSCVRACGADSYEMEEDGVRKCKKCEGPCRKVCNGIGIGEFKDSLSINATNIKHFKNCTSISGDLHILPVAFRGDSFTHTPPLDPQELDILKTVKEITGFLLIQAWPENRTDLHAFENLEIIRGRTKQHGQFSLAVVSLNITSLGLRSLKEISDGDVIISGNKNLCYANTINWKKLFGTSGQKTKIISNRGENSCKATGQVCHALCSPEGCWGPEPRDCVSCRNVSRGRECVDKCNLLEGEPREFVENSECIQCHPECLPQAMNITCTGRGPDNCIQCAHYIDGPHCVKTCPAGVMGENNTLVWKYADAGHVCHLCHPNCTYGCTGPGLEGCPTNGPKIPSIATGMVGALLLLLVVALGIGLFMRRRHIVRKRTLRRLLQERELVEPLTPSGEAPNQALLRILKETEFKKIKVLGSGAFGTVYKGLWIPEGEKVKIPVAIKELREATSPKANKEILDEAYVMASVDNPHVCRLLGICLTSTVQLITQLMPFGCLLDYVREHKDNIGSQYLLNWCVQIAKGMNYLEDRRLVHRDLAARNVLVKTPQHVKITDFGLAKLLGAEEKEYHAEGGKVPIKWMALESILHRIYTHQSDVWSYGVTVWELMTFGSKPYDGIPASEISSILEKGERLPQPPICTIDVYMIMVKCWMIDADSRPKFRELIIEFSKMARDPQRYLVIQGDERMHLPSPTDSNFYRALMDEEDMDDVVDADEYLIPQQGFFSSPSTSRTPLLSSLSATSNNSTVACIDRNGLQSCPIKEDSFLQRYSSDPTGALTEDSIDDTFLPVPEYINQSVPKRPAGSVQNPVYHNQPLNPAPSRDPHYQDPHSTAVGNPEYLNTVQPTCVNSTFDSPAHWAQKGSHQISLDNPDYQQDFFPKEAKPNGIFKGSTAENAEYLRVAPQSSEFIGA
T2 sequence (P08069 31-1367): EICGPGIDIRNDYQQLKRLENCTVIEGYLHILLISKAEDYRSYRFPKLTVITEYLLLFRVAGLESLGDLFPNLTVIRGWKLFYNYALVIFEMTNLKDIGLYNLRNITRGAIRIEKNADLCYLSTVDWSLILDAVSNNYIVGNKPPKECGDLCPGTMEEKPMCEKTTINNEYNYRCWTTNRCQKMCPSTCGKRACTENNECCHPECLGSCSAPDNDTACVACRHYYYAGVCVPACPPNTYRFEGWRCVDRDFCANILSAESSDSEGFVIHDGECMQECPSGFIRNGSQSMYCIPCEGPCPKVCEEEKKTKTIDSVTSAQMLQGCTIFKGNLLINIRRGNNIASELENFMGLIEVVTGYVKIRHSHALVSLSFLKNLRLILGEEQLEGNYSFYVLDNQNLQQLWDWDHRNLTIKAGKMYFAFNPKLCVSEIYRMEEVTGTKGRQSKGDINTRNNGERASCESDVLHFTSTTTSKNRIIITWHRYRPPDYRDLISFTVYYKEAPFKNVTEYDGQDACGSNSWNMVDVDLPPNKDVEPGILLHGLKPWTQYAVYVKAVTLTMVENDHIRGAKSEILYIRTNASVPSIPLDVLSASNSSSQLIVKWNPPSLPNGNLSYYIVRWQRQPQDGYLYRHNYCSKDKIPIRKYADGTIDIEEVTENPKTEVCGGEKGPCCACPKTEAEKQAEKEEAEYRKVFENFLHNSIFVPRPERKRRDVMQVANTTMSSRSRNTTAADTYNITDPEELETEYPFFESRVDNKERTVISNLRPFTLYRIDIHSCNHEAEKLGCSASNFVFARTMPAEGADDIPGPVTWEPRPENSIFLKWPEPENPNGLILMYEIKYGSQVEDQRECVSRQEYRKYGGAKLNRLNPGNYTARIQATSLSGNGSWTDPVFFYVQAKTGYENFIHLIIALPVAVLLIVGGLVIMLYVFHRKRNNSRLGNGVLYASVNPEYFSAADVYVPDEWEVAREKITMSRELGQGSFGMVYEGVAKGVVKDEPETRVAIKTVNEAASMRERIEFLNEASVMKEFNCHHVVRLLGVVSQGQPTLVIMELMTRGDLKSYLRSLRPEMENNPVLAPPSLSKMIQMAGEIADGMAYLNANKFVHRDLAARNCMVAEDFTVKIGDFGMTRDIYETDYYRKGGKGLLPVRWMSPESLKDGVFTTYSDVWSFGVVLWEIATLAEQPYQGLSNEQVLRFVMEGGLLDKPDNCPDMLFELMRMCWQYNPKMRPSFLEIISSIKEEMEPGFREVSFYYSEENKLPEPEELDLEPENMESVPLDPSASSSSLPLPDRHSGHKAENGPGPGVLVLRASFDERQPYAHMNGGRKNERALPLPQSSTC

On to `COc1cccc(CNc2ccnc3[nH]c4ccc(Br)cc4c23)c1` [Compound 5a, N^4–(3-Methoxybenzyl)-6-bromo-9H-pyrido[2,3-b]indole-4-amine], for which the inhibitory constant (Ki) (in general, the equilibrium dissociation constant of an inhibitor or competing ligand from its target) at EGFR is 344 ± 24 nM; at IGF-1R [1], 9840 ± 238 nM.
Consider `Clc1cccc(CNc2ccnc3[nH]c4ccc(Br)cc4c23)c1` [Compound 5b, N^4–(3-Chlorobenzyl)-6-bromo-9H-pyrido[2,3-b]indole-4-amine], for which the Ki at EGFR came out at 361 ± 35 nM; at IGF-1R [1], 3470 ± 71 nM.
With `Brc1cccc(CNc2ccnc3[nH]c4ccc(Br)cc4c23)c1` [Compound 5c, N^4–(3-Bromobenzyl)-6-bromo-9H-pyrido[2,3-b]indole-4-amine], the Ki stood at 255 ± 18 nM at EGFR and 2960 ± 37 nM at IGF-1R [1].
On to `Nc1cccc(CNc2ccnc3[nH]c4ccc(Br)cc4c23)c1` [Compound 5d, N^4–(3-Aminobenzyl)-6-bromo-9H-pyrido[2,3-b]indole-4-amine], for which the Ki stood at 101 ± 11 nM at EGFR and 537 ± 22 nM on IGF-1R [1].
In the case of `COc1ccc(CNc2ccnc3[nH]c4ccc(Br)cc4c23)cc1` [Compound 5e, N^4–(4-Methoxybenzyl)-6-bromo-9H-pyrido[2,3-b]indole-4-amine], the Ki at EGFR came out at 1170 ± 57 nM; at IGF-1R [1], 2230 ± 22 nM.
Regarding `Clc1ccc(CNc2ccnc3[nH]c4ccc(Br)cc4c23)cc1` [Compound 5f, N^4–(4-Chlorobenzyl)-6-bromo-9H-pyrido[2,3-b]indole-4-amine], the “Ki values EGFR” value on EGFR is listed as “lost”. At IGF-1R [1], the inhibitory constant (Ki) came to 2290 ± 43 nM.
For the molecule `Brc1ccc(CNc2ccnc3[nH]c4ccc(Br)cc4c23)cc1` [Compound 5g, N^4–(4-Bromobenzyl)-6-bromo-9H-pyrido[2,3-b]indole-4-amine], the Ki on EGFR was found to be 448 ± 72 nM; on IGF-1R [1], 884 ± 25 nM.
As to `Cc1ccc(CNc2ccnc3[nH]c4ccc(Br)cc4c23)cc1` [Compound 5h, N^4–(4-Methylbenzyl)-6-bromo-9H-pyrido[2,3-b]indole-4-amine], the values for the inhibitory constant (Ki) on EGFR and at IGF-1R [1] were 279 ± 91 nM and 697 ± 15 nM, respectively.
`COc1cccc(CNc2ccnc3[nH]c4ccc(C#N)cc4c23)c1` [Compound 6a, 4–(3-Methoxybenzyl)amino-9H-pyrido[2,3-b]indole-6-carbonitrile]: the figures for the Ki on EGFR and at IGF-1R [1] were 72 ± 17 nM and 288 ± 26 nM, respectively. The “affinity towards IGF-1R relative to corresponding 6-bromo compound 5a” value on IGF-1R [1] (fold comparison of Ki with 5a) was “more than thirtyfold higher”.
For `COc1ccc(CNc2ccnc3[nH]c4ccc(C#N)cc4c23)cc1` [Compound 6b, 4–(4-Methoxybenzyl)amino-9H-pyrido[2,3-b]indole-6-carbonitrile], the figures for the Ki at EGFR and on IGF-1R [1] were 158 ± 26 nM and 269 ± 22 nM, respectively.
Consider `Cc1ccc(CNc2ccnc3[nH]c4ccc(C#N)cc4c23)cc1` [Compound 6c, 4–(4-Methylbenzyl)amino-9H-pyrido[2,3-b]indole-6-carbonitrile], for which the Ki on EGFR is 160 ± 15 nM; at IGF-1R [1], 390 ± 16 nM.
As to `COc1cccc(CNc2ccnc3[nH]c4ccc(C(=O)O)cc4c23)c1` [Compound 7], the Ki on EGFR came out at 140 ± 28 nM; at IGF-1R [1], 2360 ± 132 nM. Also, the “affinity towards IGF-1R relative to corresponding 6-cyano compound 6a” value at IGF-1R [1] (fold comparison of Ki with 6a) is reported as “almost tenfold lower”.
Consider `C#Cc1cccc(Nc2ncnc3cc(OCCOC)c(OCCOC)cc23)c1` [erlotinib], for which the “activity toward IGF-1R (erlotinib)” value in the test on IGF-1R [2] is recorded as “no activity”.
